Results from patent publication US10633386B2, “BET protein degraders” (THE REGENTS OF THE UNIVERSITY OF MICHIGAN, priority 2016, dated 2020).
Each block holds one compound with its values, some of them ahead of it.

Key:
MDA-MB-231 = experiment: Cell growth inhibition (CellTiter-Glo), MDA-MB-231; type: cell-based, human; conditions: Homo sapiens, MDA-MB-231, 96 h, MDA-MB-231 cells, 4 days
Description: (§1) Cell growth inhibitory activity of representative BET bromodomain degraders was determined using CellTiter-Glo® Luminescent Cell Viability Assay. Cells were seeded in 384-well white opaque cell culture plates at a density of 2,000 cells/well with serially diluted compounds and incubated at 37° C. in an atmosphere of 95% air and 5% CO2 for 4 days. Cell viability was determined using the CellTiter-Glo® Luminescent Cell Viability Assay Kit (Promega, Madison, Wis.) according to the manufacture's instruction. Briefly, a volume of CellTiter-Glo® Reagent equal to the volume of cell culture medium was added to each well, and then the plates were incubated at room temperature for 10-20 minutes. The luminescent signal was measured using a Tecan Infinite M1000 multimode microplate reader (Tecan, Morrisville, N.C.). The half maximal inhibitory concentration (IC50) was calculated using the GraphPad Prism 5 software (GraphPad Software, La Jolla, Calif.).

MOLM-13 = experiment: Cell growth inhibition (CellTiter-Glo), MOLM-13; type: cell-based; conditions: Homo sapiens, MOLM-13, 96 h, MOLM-13 cells, 4 days
Description: as §1

MDA-MB-231 xenograft = experiment: In vivo antitumor activity in MDA-MB-231 xenograft model (Example 25); parameters: species or system SCID mice
Description: (§2) For the in vivo efficacy experiments of this example, when tumors reached 80-200 mm^3, SCID mice were randomized into groups. Cpd. A, Cpd. No. 4, Cpd. No. 6, or vehicle control (10% PEG400: 3% Cremophor: 87% PBS, or 2% TPGS:98% PEG200) was given at the dose and duration indicated. Tumor sizes and animal weights were measured 2-3 times per week. Tumor volume (mm^3)=(length×width^2)/2. Tumor growth inhibition was calculated as TGI (%)=(Vc−Vt)/(Vc−Vo)*100, where Vc, Vt are the median of control and treated groups at the end of the study and Vo at the start. All the in vivo studies were performed under an animal protocol approved by the University Committee on Use and Care of Animals of the University of Michigan, in accordance with the recommendations in the Guide for the Care and Use of Laboratory Animals of the National Institutes of Health.
(§3) No. 4 was determined in xenograft tumor models of TNBC cell lines.

MDA-MB-468 xenograft = experiment: In vivo antitumor activity in MDA-MB-468 xenograft model; parameters: species or system SCID mice
Description: as §2, §3

TNBC cell lines [1] = experiment: Combination growth inhibition with BCL-2/BCL-XL inhibitors (Bliss independence model); type: cell-based; conditions: 6 of the 7 TNBC cell lines tested (data not shown)
Description: MCL1 and BCL-XL are important but independent determinants of cell survival in TNBC (Goodwin et al., Cell Death Differ 22:2098-106 (2015); Xiao et al., Mol. Cancer Ther. 14:1837-47 (2015); Petrocca et al., Cancer Cell 24:182-96 (2013)). A panel of TNBC cell lines were treated with Cpd. No. 4 in combination with BCL-2 and/or BCL-XL inhibitors, and the excess growth inhibition was computed over the Bliss independence model for each combination pairs (Berenbaum, Adv. Cancer Res., 35:269-335 (1981)). ABT-263 (Tse et al., Cancer Res. 68:3421-8 (2008)) and BM-1197 (Bai et al., PLoS One 2014; 9(6):e99404 doi 10.1371/journal.pone.0099404) were selected as dual BCL-2/BCL-XL inhibitors, […] as a selective BCL-XL inhibitor (Tao et al., ASC Med. Chem. Lett. 5:1088-93 (2014)) and ABT-199 as a selective BCL-2 inhibitor (Souers et al., Nat. Med. 19:202-8 (2013)).

TNBC cell lines [2] = experiment: Combination apoptosis induction (immunoblotting and/or Annexin-PI staining); type: cell-based; conditions: for effect on Cpd. No. 4-induced apoptosis: MDA-MB-468, 250 nM with Cpd. No. 4 50 nM (FIG. 14)
Description: Immunoblotting and/or Annexin-PI staining confirmed that BM-1197 (250 nM), ABT-263 (250 nM), and A-1155463 (250 nM) potentiated Cpd. No. 4-induced apoptosis (50 nM) in MDA-MB-468 (FIG. 14) and other TNBC cell lines (data not shown). Synergistic induction of apoptosis by Cpd. […] No. 4-induced apoptosis in these cell lines. […] A with either BM-1197 (FIGS. 15 and 16) or ABT-263 (data not shown). […] No. 4 and BM-1197 was also detected in additional TNBC cell lines responsive to Cpd. No. 4-induced apoptosis (BT-20 and MDA-MB-157) (data not shown), further supporting that BCL-XL inhibitors potentiate Cpd. No. 4-induced apoptosis in TNBC.

IC50 (MDA-MB-231): 1 nM
IC50 (MOLM-13): < 0.8 nM
Compound: CCn1nc(C2CC2)cc1Nc1nc(C(=O)NCCCCCc2cccc3c2CN(C2CCC(=O)NC2=O)C3=O)nc2[nH]c3cc(-c4c(C)noc4C)c(OC)cc3c12 (centres unmarked) [Cpd. No. 6]
tumor growth (MDA-MB-231 xenograft; MDA-MB-231 xenograft model in mice (FIG. 10)): reduce tumor growth
antitumor activity relative to Cpd. A at 50 mg/kg, daily oral dosing, 5 days a week for 3 weeks (MDA-MB-231 xenograft; MDA-MB-231 xenograft model, 5 mg/kg, IV, 3 times per week for 3 weeks): comparable to or stronger than that of Cpd. A
antitumor activity (MDA-MB-231 xenograft; MDA-MB-231 xenograft model, 5 mg/kg, IV, 3 times per week for 3 weeks (FIG. 10)): exerted antitumor activity
tumor growth (MDA-MB-468 xenograft; MDA-MB-468 xenograft model in mice (FIG. 11)): reduce tumor growth
antitumor activity relative to Cpd. A at 50 mg/kg, daily oral dosing, 5 days a week for 3 weeks (MDA-MB-468 xenograft; MDA-MB-468 xenograft model, 5 mg/kg, IV, 3 times per week for 3 weeks): comparable to or stronger than that of Cpd. A
antitumor activity (MDA-MB-468 xenograft; MDA-MB-468 xenograft model, 5 mg/kg, IV, 3 times per week for 3 weeks (FIG. 11)): exerted antitumor activity

Compound: CN(C)CC#Cc1ccc(OCCCc2sc(N3CCc4cccc(C(=O)Nc5nc6ccccc6s5)c4C3)nc2C(=O)O)c(F)c1 [A-1155463]
synergy with Cpd. No. 4 (excess growth inhibition over Bliss independence model) (TNBC cell lines [1]): Modest to strong synergy
effect on Cpd. No. 4-induced apoptosis (TNBC cell lines [2]): potentiated

Compound: CC1(C)CCC(c2ccc(Cl)cc2)=C(CN2CCN(c3ccc(C(=O)NS(=O)(=O)c4ccc(N[C@H](CCN5CCOCC5)CSc5ccccc5)c(S(=O)(=O)C(F)(F)F)c4)cc3)CC2)C1 [ABT-263]
synergy with Cpd. No. 4 (excess growth inhibition over Bliss independence model) (TNBC cell lines [1]): Modest to strong synergy
effect on Cpd. No. 4-induced apoptosis (TNBC cell lines [2]): potentiated

Compound: Cc1c(S(C)(=O)=O)c(-c2cc(F)cc(N3CCN(c4ccc(NS(=O)(=O)c5ccc(N[C@H](CCN6CCC(O)CC6)CSc6ccccc6)c(S(=O)(=O)C(F)(F)F)c5)cc4)CC3)c2)c(-c2ccc(Cl)cc2)n1C(C)C [BM-1197]
synergy with Cpd. No. 4 (excess growth inhibition over Bliss independence model) (TNBC cell lines [1]): Modest to strong synergy
apoptosis induction by the combination of Cpd. No. 4 and BM-1197 (TNBC cell lines [2]; BT-20 and MDA-MB-157 (data not shown)): synergistic apoptosis induction
effect on apoptosis induction by Cpd. No. 4 (TNBC cell lines [2]; MDA-MB-213 cells (FIG. 15)): enhances apoptosis induction by Cpd. No. 4
effect on apoptosis induction by Cpd. No. 4 (TNBC cell lines [2]; MDA-MB-453 cells (FIG. 16)): enhances apoptosis induction by Cpd. No. 4
effect on Cpd. No. 4-induced apoptosis (TNBC cell lines [2]): potentiated
